In PubChem BioAssay (NCI):
Values joined by “and” are separate entries in the source; they are usually repeats but may differ in a detail not shown here. Identical values can stand only once.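 Growth conditions: 96-well plates. Treatment: test compound, 48 hours, 5 concentrations. Analysis: linear interpolation between bracketing concentrations; unreached endpoints set to highest concentration. GI50: concentration for 50% inhibition of growth. TGI denotes the concentration required for complete inhibition of growth.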 Active and inactive are the calls of the source. No stated cut-off is given here; in the data, active means GI50 below about 0.43 µM; inactive means the rest.

Tests used:
Experiment in all cases: NCI tumour cell line growth inhibition, 48 h
CAKI-1 renal = test system: CAKI-1 renal
SR leukemia = test system: SR leukemia
NCI-H460 lung = test system: NCI-H460 lung
EKVX NSCLC = test system: EKVX NSCLC
MALME-3M melanoma = test system: MALME-3M melanoma
MOLT-4 leukemia = test system: MOLT-4 leukemia
PC-3 prostate = test system: PC-3 prostate
SNB-19 CNS = test system: SNB-19 CNS
MDA-MB-231 breast = test system: MDA-MB-231 breast

| SMILES | GI50 (CAKI-1 renal) [µM] | TGI (CAKI-1 renal) [µM] | GI50 (SR leukemia) [µM] | TGI (SR leukemia) | GI50 (NCI-H460 lung) [µM] | TGI (NCI-H460 lung) | GI50 (EKVX NSCLC) | TGI (EKVX NSCLC) | GI50 (MALME-3M melanoma) | TGI (MALME-3M melanoma) | GI50 (MOLT-4 leukemia) [µM] | TGI (MOLT-4 leukemia) | GI50 (PC-3 prostate) [µM] | TGI (PC-3 prostate) [µM] | GI50 (SNB-19 CNS) [µM] | TGI (SNB-19 CNS) | GI50 (MDA-MB-231 breast) | TGI (MDA-MB-231 breast) | outcome (NCI-H460 lung) | outcome (SNB-19 CNS) |
| --- | --- | --- | --- | --- | --- | --- | --- | --- | --- | --- | --- | --- | --- | --- | --- | --- | --- | --- | --- | --- |
| CC/C=C\C[C@@H](O)C/C=C1/C(=O)C=C[C@H]1C/C=C\CCCC(=O)OC | 3.57 | 13.5 | 0.686 | 4 µM | 3.45 | 11.8 µM | 9.14 µM | 21.1 µM | 2.87 µM | 9.3 µM | 2.06 | 5.83 µM | 3.2 | 10.8 | 4.62 | 19.4 µM | 6.06 µM | 20.5 µM | – | – |
| O=C1C(Cl)=C(NCCN2CCOCC2)C(=O)c2ncccc21 | 1.92 | 3.72 | 2.01 | 5.61 µM | 1.95 | 3.23 µM and 5.37 µM | – | 3.41 µM and 3.6 µM | 1.13 µM | 3.07 µM and 2.63 µM | 2.24 | 4.01 µM and 5.27 µM | 4.26 | 18.7 | 1.99 | 3.15 µM and 4.01 µM | – | 5.02 µM and 3.77 µM | – | – |
| C[N+]1=C(/C=C/c2ccc(O)c3ncccc23)C(C)(C)c2ccccc21 | 1.11 | 3.83 | 2.13 | 15 µM | 1.77 | 3.8 µM | 2.01 µM | 7.16 µM | 2.01 µM | 5.43 µM | 3.14 | > 100 µM | 2.79 | 22 | 3.74 | 14.4 µM | 2.75 µM | 11 µM | – | – |
| COc1ccc2c(c1)CCCN2c1c2ccccc2nc2ccccc12 | 0.383 | > 100 | 0.383 | > 100 µM | 0.358 | > 100 µM | 0.932 µM | > 100 µM | 4.26 µM | > 100 µM | 0.4 | > 100 µM | 0.354 | > 100 | 0.546 | > 100 µM | 0.665 µM | > 100 µM | – | – |
| O=C(Nc1ccncc1)C(=O)c1cn(S(=O)(=O)c2cccc(F)c2)c2ccccc12 | 3.16 | > 100 | 0.552 | > 100 µM | 13 | > 100 µM | 4.17 µM | > 100 µM | 12.8 µM | > 100 µM | 4.18 | > 100 µM | 5.69 | > 100 | 49.2 | > 100 µM | 10.8 µM | > 100 µM | – | – |
| CCCCCCCC[C@@H](O)CC(=O)N[C@@H](CC(N)=O)C(=O)N[C@@H](CCC(N)=O)C(=O)N[C@@H](CC(=O)c1cc(C)cc(O)c1C(=O)c1c(O)cccc1O)CC(C)C | 1.51 | > 100 | 0.112 | > 100 µM | 3.29 | 18.3 µM | 3.35 µM | 75.5 µM | 0.667 µM | > 100 µM | 0.308 | > 100 µM | 0.31 | 47.9 | 0.244 | > 100 µM | 0.678 µM | 68.3 µM | – | – |
| NC(=O)NS(=O)(=O)c1ccc(N2N=C(C(F)(F)F)CC2c2cc(C(F)(F)F)cc(C(F)(F)F)c2)cc1 (stereo not given) | 5 | 19.5 | 3.08 | > 100 µM | 3.47 | 11.7 µM | 2.82 µM | 11.3 µM | 13.9 µM | 39.9 µM | 4.73 | 55.5 µM | 2.35 | 12.2 | 8.03 | 22.4 µM | 10.2 µM | 22.7 µM | – | – |
| COc1ccc(C(=O)C#Cc2cnc(OC)nc2OC)cc1 | 25300 | – | 12500 | 43100 µM | – | 10.8 µM | 23700 µM | – | 16600 µM | – | 17900 | – | 27800 | 2.58 | – | 24.7 µM | – | 86700 µM | inactive | inactive |
| O=C(CCc1nnc2sc(-c3ccc(Cl)cc3Cl)nn12)c1nc2ccccc2[nH]1 | 2.22 | 5.45 | 0.301 | – | 0.988 | 2.39 µM | 1.93 µM | 5.92 µM | 0.821 µM | 3.52 µM | 0.29 | – | 0.865 | 3.62 | 1.41 | 5.8 µM | 0.746 µM | 2.21 µM | – | – |
| CC/C=C\C[C@H](F)C/C=C1/C(=O)C=C[C@@H]1C/C=C\CCCC(=O)O | 6.52 | 22.5 | 1.04 | 7.49 µM | 9.35 | 30.9 µM | 7.59 µM | 25.1 µM | 8.08 µM | 23.2 µM | 1.14 | 12 µM | 6.09 | 15.7 | 7.31 | 25.4 µM | 12.7 µM | > 32.5 µM | – | – |
| CC1CN1C(=O)NCCCCCCNC(=O)N1CC1C (stereo not given) | – | > 100 | – | 60.2 µM | – | > 66.6 µM | – | > 100 µM | – | > 100 µM | – | > 100 µM | – | > 100 | – | > 100 µM | – | > 100 µM | – | – |
| CC(=O)O[C@H]1C(=O)[C@@]2(C)C(C(OC(=O)c3ccccc3)[C@]3(O)CC(OC(=O)[C@H](OC(=O)CCC(=O)O)C(NC(=O)c4ccccc4)c4ccccc4)C(C)=C1C3(C)C)C1(OC(C)=O)COC1C[C@@H]2O (stereo not given in full) | – | > 100 | – | < 0.01 µM and 0.0173 µM | – | > 100 µM | 0.121 µM and 0.875 µM | > 100 µM | < 0.01 µM and 0.0659 µM | > 100 µM | – | 1.05 µM | – | 0.0512 | – | > 100 µM | < 0.0171 µM and 0.0486 µM | – | – | – |
| Cc1ccc(-c2nc3nc(-c4ccccc4)nc(N4CCCNCC4)c3o2)cc1 | 1.73 | 3.22 | 0.222 | 0.554 µM | 1.86 | 3.53 µM | 1.75 µM | 3.29 µM | 1.85 µM | 3.38 µM | 1.44 | 3.15 µM | 1.69 | 3.17 | 1.63 | 3.11 µM | 1.81 µM | 3.32 µM | – | – |
| CC1(C)OC2=C(CC1Br)C(=O)C(=O)c1ccccc12 (stereo not given) | 1.66 | 3.15 | 3.97 | 7.44 µM | 2.08 | 3.96 µM | 1.71 µM | 3.47 µM | 1.8 µM | 3.52 µM | 2.27 | 5.26 µM | 2.13 | 4.95 | – | – | 2.35 µM | 6.42 µM | – | – |
